One compound from ChEMBL document CHEMBL4765241, “Identification and Preclinical Pharmacology of ((1 R,3 S)-1-Amino-3-(( S)-6-(2-methoxyphenethyl)-5,6,7,8-tetrahydronaphthalen-2-yl)cyclopentyl)methanol (BMS-986166): A Differentiated Sphingosine-1-phosphate Receptor 1 (S1P) Modulator Advanced into Clinical Trials” (J Med Chem, 2019) can be followed below.

In series [1] the test system is Rattus norvegicus. Put plainly: Reduction in circulating lymphocytes in Lewis rat blood at 2 mg/kg, po measured at 4 hrs by hematology analyzer based analysis. Set-up: scale not given: the % may be the effect or the level left. It is filed as functional.
In series [2] the test system is Rattus norvegicus. Briefly: Reduction in circulating lymphocytes in Lewis rat blood at 2 mg/kg, po measured at 24 hrs by hematology analyzer based analysis. It is filed as functional. Details: scale not given: the % may be the effect or the level left.
A short description of series [3]: Ratio of drug metabolism in Lewis rat blood assessed as phosphate ester metabolite to parent drug at 2 mg/kg, po measured at 24 hrs by LC-MS/MS analysis. It is filed as ADME, organism-based. Conditions: in vivo.
Series [4] in a line: Pulmonary toxicity in Lewis rat assessed as elevation of BAL protein level at 3 mg/kg by advia1800 chemistry analyzer. It is filed as organism-based. Conditions: in vivo.
Series [5] has as its system Rattus norvegicus. Briefly: Reduction in circulating lymphocytes in Lewis rat blood assessed as effective dose after oral dosing measured at 24 hrs by hematology analyzer based analysis. It is filed as functional.
The nature of series [6]: Volume of distribution at steady state in Sprague-Dawley rat at 1 mg/kg, po or 1 mg/kg, iv. It is filed as ADME, organism-based. Conditions: in vivo, read-out: Vdss.
Series [7] is described as follows: Oral bioavailability in beagle dog at 0.3 mg/kg. It is filed as ADME, organism-based, Canis lupus familiaris. Conditions: in vivo.
The nature of series [8]: Tmax in cynomolgus monkey at 1 mg/kg, po or 1 mg/kg, iv. It is filed as ADME, organism-based, Macaca fascicularis. Conditions: in vivo.
Series [9] concerns the target T1, Cytochrome P450 1A2 (Homo sapiens, UniProt P05177).
T1 sequence (P05177 whole entry): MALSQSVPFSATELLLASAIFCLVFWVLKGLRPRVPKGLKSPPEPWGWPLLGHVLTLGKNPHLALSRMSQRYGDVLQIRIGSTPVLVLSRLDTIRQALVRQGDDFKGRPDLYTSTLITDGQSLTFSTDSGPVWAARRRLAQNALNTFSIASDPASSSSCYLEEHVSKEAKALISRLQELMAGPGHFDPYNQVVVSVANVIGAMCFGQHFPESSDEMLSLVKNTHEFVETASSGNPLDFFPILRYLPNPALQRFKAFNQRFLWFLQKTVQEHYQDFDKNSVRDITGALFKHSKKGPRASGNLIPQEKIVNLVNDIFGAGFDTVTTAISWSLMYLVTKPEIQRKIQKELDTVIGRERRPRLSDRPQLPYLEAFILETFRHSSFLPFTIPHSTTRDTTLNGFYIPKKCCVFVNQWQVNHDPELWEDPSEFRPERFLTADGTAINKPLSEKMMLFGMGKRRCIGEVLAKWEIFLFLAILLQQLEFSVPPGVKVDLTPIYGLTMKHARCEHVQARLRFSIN
Briefly: Inhibition of CYP1A2 (unknown origin). It is filed as ADME.

Series [10] addresses T2, Cytochrome P450 2C8 (Homo sapiens, UniProt P10632).
T2 sequence (P10632 whole entry): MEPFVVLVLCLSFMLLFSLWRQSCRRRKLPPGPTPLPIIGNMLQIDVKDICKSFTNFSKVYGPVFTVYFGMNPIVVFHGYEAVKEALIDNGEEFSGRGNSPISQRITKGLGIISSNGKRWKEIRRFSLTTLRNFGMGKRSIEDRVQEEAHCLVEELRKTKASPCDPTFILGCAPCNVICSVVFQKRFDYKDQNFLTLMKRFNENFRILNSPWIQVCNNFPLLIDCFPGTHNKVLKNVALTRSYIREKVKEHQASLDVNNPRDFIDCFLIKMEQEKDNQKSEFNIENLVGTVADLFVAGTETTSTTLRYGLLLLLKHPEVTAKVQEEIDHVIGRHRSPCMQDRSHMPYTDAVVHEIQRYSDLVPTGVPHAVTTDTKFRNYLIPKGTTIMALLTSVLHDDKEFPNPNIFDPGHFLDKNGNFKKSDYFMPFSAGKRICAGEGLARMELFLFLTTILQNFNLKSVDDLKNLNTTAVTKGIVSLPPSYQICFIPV
Put plainly: Inhibition of CYP2C8 (unknown origin). It is filed as ADME.

The nature of series [11]: Protein binding in human assessed as bound fraction. It is filed as ADME. Conditions: read-out: PB.
Series [12] is described as follows: Protein binding in cynomolgus monkey assessed as bound fraction. It is filed as ADME, Macaca fascicularis. Conditions: read-out: PB.
Series [13] is described as follows: Protein binding in dog assessed as bound fraction. It is filed as ADME, Canis lupus familiaris. Conditions: read-out: PB.
Series [14] is described as follows: Metabolic stability in rat liver microsomes assessed as half-life measured upto 120 mins in presence of NADPH-generating system by LC/MS/MS analysis. It is filed as ADME, Microsome. Background: Liver microsomes are vesicles of endoplasmic reticulum, rich in cytochrome P450 enzymes.
Series [15] in a line: Metabolic stability in dog liver microsomes assessed as half-life measured upto 120 mins in presence of NADPH-generating system by LC/MS/MS analysis. It is filed as ADME, Canis lupus familiaris, Microsome.
Series [16] in a line: Metabolic stability in cynomolgus monkey liver microsomes assessed as half-life. It is filed as ADME, Macaca fascicularis, Microsome.
For series [17], the system named is Mus musculus. Briefly: Immunosuppressive activity in MOG (35 to 55 residues)/pertussis toxin-induced experimental autoimmune encephalomyelitis C57BL/6 mouse model assessed as reduction in clinical scores for inflammation administered orally once daily starting from day 1 post immunization and measured thrice weekly until day 24. Conditions: dose 0.1-0.5 mg/kg. It is filed as functional, organism-based.

Where only a bound is given, the exact number is not on record here.

Broadly, the ED50 is the dose that gives a 50% effect, or the effect in half of the subjects. One may read the bioavailability as dose-corrected exposure relative to a reference, in per cent. Broadly, the Tmax is the time from dosing to the highest level. Usually IC50 stands for the midpoint of a concentration-inhibition curve. By half-life is commonly meant the time needed for the level to fall by half in the phase considered. In the case of `COc1ccccc1CC[C@@H]1CCc2cc([C@H]3CC[C@](N)(CO)C3)ccc2C1` [UDIFITIMOD], the Activity in series [1] is 76%; in series [2] it was 81%; in [4], 8.8 mg/dL; in series [17], “Dose-dependent effect”. Moreover, the Ratio in [3] is reported as 5. The ED50 in series [5] was determined as 0.1 mg/kg. The Vd in [6] came out at 16 L/kg. The compound further showed a bioavailability in series [7] of 61%. Further, the Tmax in [8] was 6 h. Also, the results for the IC50 in [9] and in series [10] were more than 20 µM and 8.6 µM, respectively. The fraction unbound in series [11], in [12] and in series [13] was less than 0.001 in each case. The half-life in series [14] worked out at 1.62 h; in [15] it was 6.2 h; in series [16] it was 1.83 h.
